This note sets out measurements from patent publication US20250017936A1, “CELL-POTENT BISUBSTRATE INHIBITORS FOR NICOTINAMIDE N-[…] (NNMT) AND USES THEREOF” (priority 2021, published 2025).

Assay [1] concerns the target T1, NNMT (Homo sapiens (Human), UniProt P40261). As to the kind of experiment: biochemical. Format: biochemical.
The target in assay [2] is T1, NNMT. As to the kind of experiment: Fluorescence polarization (FP)-based competition assay with probe II138. It is filed as binding. Particulars: read-out: Ki (FP Assay).
[3] abbreviates: SAHH-coupled Assay IC50, 10 μM SAM, 10 μM nicotinamide (Km), 0.1 μM NNMT.

The IC50 is the concentration needed to halve the response being measured.

Like-named read-outs stand apart in the source and are kept apart here.

T1 sequence (P40261 whole entry): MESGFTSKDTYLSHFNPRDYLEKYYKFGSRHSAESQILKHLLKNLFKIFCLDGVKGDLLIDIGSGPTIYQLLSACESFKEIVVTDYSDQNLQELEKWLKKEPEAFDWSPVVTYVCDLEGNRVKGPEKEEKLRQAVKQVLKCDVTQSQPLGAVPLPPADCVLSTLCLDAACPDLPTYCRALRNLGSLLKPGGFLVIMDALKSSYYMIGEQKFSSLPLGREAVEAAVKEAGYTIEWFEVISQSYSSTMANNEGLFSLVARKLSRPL

In turn, `CCN(CC#Cc1cccc(C(N)=O)c1)C[C@H]1C[C@@H](n2ccc3c(Cl)ncnc32)[C@H](O)[C@@H]1O` [II542, 3-(3-((((1R,2R,3S,4R)-4-(4-chloro-7H-pyrrolo[2,3-d]pyrimidin-7-yl)-2,3dihydroxycyclopentyl)methyl)(ethyl)amino)prop-1-yn-1-yl)benzamide] came in with a half-maximal inhibitory concentration (IC50) in assay [1] (setting [3]) of 7700 nM.
With `CC(=O)N(CC#Cc1cccc(C(N)=O)c1)C[C@H]1C[C@@H](n2ccc3c(N)ncnc32)[C@H](O)[C@@H]1O` [II642, 3-(3-(N-(((1R,2R,3S,4R)-4-(4-amino-7H-pyrrolo[2,3-d]pyrimidin-7-yl)-2,3-dihydroxycyclopentyl)methyl)acetamido)prop-1-yn-1-yl) benzamide], the Ki in assay [2] amounted to 70 ± 8 nM; in assay [1] (read-out: Ki, app), 4 ± 0.02 nM. In addition, the concentration for half-maximal inhibition (IC50) is 25 ± 7 nM in assay [1] (10 μM SAM, 10 μM nicotinamide (Km), 0.1 μM NNMT, read-out: SAHH-coupled Assay IC50); 25 ± 7 nM in assay [1] (10 μM SAM, 10 μM nicotinamide (Km), 0.1 μM NNMT, read-out: SAHH-coupled assay IC50); 93 ± 7 nM in assay [1] (substrate and SAM concentration at 4 Km, read-out: SAHH-coupled Assay IC50).
`CC(=O)N(CC#Cc1cccc(C(N)=O)c1)C[C@H]1O[C@@H](n2cnc3c(N)ncnc32)[C@H](O)[C@@H]1O` [II661, 3-(3-(N-(((2R,3S,4R,5R)-5-(6-amino-9H-purin-9-yl)-3,4-dihydroxytetrahydrofuran-2-yl)methyl)acetamido)prop-1-yn-1-yl)benzamide]: the IC50 in assay [1] (setting [3]) came to 7600 nM.
